PMC4754968 (Clinical genitourinary cancer, 2014)
One block for each molecule: values may come before it.

Legend:
[1] = system: metastatic RCC; settings: metastatic RCC previously treated with VEGFR tyrosine kinase inhibitor; ref [6]; cited from earlier work
[2] = Everolimus single-dose pharmacokinetics; type: in vivo, patients; settings: for AUCinf % extrapolated: single dose everolimus 30 mg
[3] = human, in vivo, 30 mg
[4] = cited from earlier work
[5] = cited from earlier work; remark: listed apart in the source
[6] = system: metastatic RCC; settings: front line metastatic RCC setting; ref [1],[2]; cited from earlier work
[7] = Sunitinib multiple-dose pharmacokinetics; type: in vivo, patients; settings: for AUC / CL/F / Cmax / half-life: human, oral; for AUC / CL/F / Cmax / half-life / Cmin / Tmin: plasma, multiple dose (dose 14), sunitinib 50 mg daily with everolimus 30 mg weekly; for AUC: AUCtau, dosing interval 24 hours; for CL/F: dose/AUCtau

- Tmax ([2]; human, plasma, po): 2 h
- AUC(0-inf) ([2]; human, plasma, po, AUCinf, subject 1002, after first oral dose of everolimus 30 mg, with sunitinib 50 mg daily, plasma): 1560 ng·h/mL
- CL/F ([2]; human, plasma, po, CL/F, subject 1002, after first oral dose of everolimus 30 mg, with sunitinib 50 mg daily, plasma): 3.34 mL/min/kg
- Cmax ([2]; human, plasma, po, Cmax, subject 1002, after first oral dose of everolimus 30 mg, with sunitinib 50 mg daily, plasma): 82.3 ng/mL
- half-life ([2]; human, plasma, po, t1/2, subject 1002, after first oral dose of everolimus 30 mg, with sunitinib 50 mg daily, plasma): 1540 min
- AUCinf % extrapolated ([2]; subject 1002): 48.7%
- AUCinf % extrapolated ([2]; subject 1003): 35.2%
- AUCtau relative to AUCinf after the first dose [3]: almost double
Compound: CO[C@H]1C[C@@H]2CC[C@@H](C)[C@@](O)(O2)C(=O)C(=O)N2CCCC[C@H]2C(=O)O[C@H]([C@H](C)C[C@@H]2CC[C@@H](OCCO)[C@H](OC)C2)CC(=O)[C@H](C)/C=C(\C)[C@@H](O)[C@@H](OC)C(=O)[C@H](C)C[C@H](C)/C=C/C=C/C=C/1C [Everolimus]
- progression-free survival (PFS) over placebo [1]: significant improvement
- bioavailability [4]: 16%
- eliminated in bile [5]: 98%

- AUC ([7]; subject 1001): 1860 ng·h/mL
- AUC ([7]; subject 1002): 2770 ng·h/mL
- AUC ([7]; subject 1003): 2300 ng·h/mL
- CL/F ([7]; subject 1001): 7.13 mL/min/kg
- CL/F ([7]; subject 1002): 3.12 mL/min/kg
- CL/F ([7]; subject 1003): 5.34 mL/min/kg
- Cmax ([7]; subject 1001): 83.1 ng/mL
- Cmax ([7]; subject 1002): 142 ng/mL
- Cmax ([7]; subject 1003): 106 ng/mL
- half-life ([7]; t1/2, subject 1002): 1.38 days
- half-life ([7]; t1/2, subject 1003): 3.56 days
- AUCtau compared with sunitinib monotherapy ([7]; same dose of sunitinib (50 mg/d), compared with Faivre, et al): substantially higher
- Cmin ([7]; subject 1001): 59.4 ng/mL
- Tmin ([7]; subject 1001): 2 h
- Cmin ([7]; subject 1002): 80.3 ng/mL
- Tmin ([7]; subject 1002): 0 h
Compound: CCN(CC)CCNC(=O)c1c(C)[nH]c(/C=C2\C(=O)Nc3ccc(F)cc32)c1C [Sunitinib, Sunitinib malate]
- progression free survival (PFS) [6]: less than a year

Compound: Cc1ccc(Nc2nccc(N(C)c3ccc4c(C)n(C)nc4c3)n2)cc1S(N)(=O)=O [pazopanib]
- progression free survival (PFS) [6]: less than a year
